{
  "source": "patent US20190242876A1",
  "about": "“GENETICALLY ENCODED CELL DEATH INDICATORS AND METHODS OF USE” (The J. David Gladstone Institutes, A Testamentary Trust …, priority 2016, published 2019)",
  "key": {"Rat primary neurons [1]": {"test_system": "Rat primary neurons", "assay": "KCl membrane depolarization of neurons expressing RGEDI-P2A-EGFP", "type": "cell-based", "details": "10 mM KCl (FIG. 21D)", "protocol": "FIG. 21A depicts representative images of individual neurons over the time course. […] Next, the RGEDI intensity was plotted as a percentage increase from baseline (t=0) (ie delta RGEDI/baseline RGEDI). Using the morphology as a readout, the time of death was determined for each neuron. […] FIG. 21D."}, "[2]": {"test_system": "motor neurons of zebrafish larvae", "assay": "Targeted neuronal ablation with MTZ in nitroreductase-expressing zebrafish", "type": "in vivo", "protocol": "Briefly, zebrafish embryos were co-injected at 1-cell stage with mnx1:Gal4, UAS:GCaMP6f, and UAS:Nitroreductase-mCherry. Embryos were grown at 28.5° C. until 48 hours post fertilization (hpf), anaesthetized in tricaine, embedded in low-melting point agarose, and then imaged on a spinning disk confocal microscope. Images were acquired of the same motor neurons within the zebrafish at 0, 24 hours, and 48 hours after MTZ or DMSO was added to the media. Intensity of GCaMP6f was plotted as the change in fluorescence intensity from time point 0.\nThe GEDI reporter was also tested in skeletal muscle fiber. FIG. 13C. […] FIGS. 14A, 14B, and 22."}, "Rat primary neurons [3]": {"test_system": "Rat primary neurons", "assay": "RGEDI/EGFP ratio after NaN3-induced acute death of neurons", "type": "cell-based", "protocol": "ANOVA Tukey's ***p<0.001, ns=not significant.\nRat primary neurons were transfected with hsyn1:RGEDI-P2A-EGFP as described above and imaged at DIV10. […] A non-linear regression was fit to the NaN3+Ca^2+ time course and a half-life of RGEDI/EGFP signal increase was determined to be 5 minutes and 50 seconds. […] ANOVA Tukey comparison to 0 minutes of each condition, *** p<0.001, **** p<0.0001. […] FIG. 3."}, "[4]": {"test_system": "rat primary cortical neurons", "assay": "Glutamate exposure of neurons expressing RGEDI, survival by GEDI ratio", "type": "cell-based", "details": "within three hours of glutamate exposure", "excerpt": "Briefly, neurons expressing RGEDI were exposed to the neurotransmitter glutamate. […] Furthermore, features of neurons such as neurite area were identified as associated with neurons that are resistant to high Glutamate exposure. These studies indicate that GEDIs can be used for screening for drug resistant or drug sensitive cells and identifying physiological characteristics of those cells that may underlie their sensitivity or resistance."}, "[5]": {"test_system": "rat primary cortical neurons", "assay": "Toxicity of neurodegenerative disease proteins in neurons, cumulative hazard from GEDI ratio", "type": "cell-based", "details": "automated GEDI ratio, 8 time points", "protocol": "Rat primary cortical neuron cultures were prepared from embryos (embryonic day 16-18) and co-transfected using Lipofectamine2000 (ThermoFisher Scientific, Carlsbad, Calif., USA) with 150 ng/well of hSyn1:mRuby-P2a-GCaMP (Addgene #50943) and either Htt^ex1-Q27 or Htt^ex1-Q97 (known to induce neurodegeneration) in a 96-well format. […] FIG. 17A. The GCaMP intensity was detected and plotted as a percentage increase from baseline (t=0) (i.e., delta GCaMP/baseline GCaMP). Using the morphology as a readout, the time of death was determined for each neuron.\nTo examine the changes in signal increase as a cell dies, rat primary cortical neurons expressing GCaMP6f, mRuby, and HttEx1-Q97 were examined overtime. […] Using time lapse imaging, it was observed that 0 out of 94,106 dead rat primary cortical neurons examined regenerated after elevated GEDI signal, indicating elevated GEDI signal is terminal. In addition, the ratio of GCaMP6f/mRuby signal from rat primary cortical neurons expressing HttEx1-Q97 and HttEx1-Q25 at 0, 24, 48, 72, 96, and 120 hours post transfection was determined. FIG. 1B, the horizontal line at 0.75 separates dead from live neurons. […] Similarly, human motor neurons differentiated from induced pluripotent stem cells were transfected with […] hSyn1:mRuby-P2a-GCaMP and imaged with robotic microscopy every 6 hours up to 12 hours. […]"}},
  "data": [
    {"compound": "[Cl-].[K+]", "note": "[KCl]", "values": [
      {"measurement": "excitation of RGEDI-P2A-EGFP signal", "setting": "Rat primary neurons [1]", "result": "failed to excite"}
    ]},
    {"compound": "Cc1ncc([N+](=O)[O-])n1CCO", "note": "[MTZ, metronidazole]", "values": [
      {"measurement": "GCaMP expression", "setting": "[2]; 24 and 48 hours after addition, zebrafish larvae motor neurons, NTR-mCherry", "result": "increased"},
      {"measurement": "RGEDI-P2a-3XtagBFP signal", "setting": "[2]; zebrafish neurons co-expressing NTR-mVenus, versus DMSO", "result": "signal increased"}
    ]},
    {"compound": "[N-]=[N+]=[N-].[Na+]", "note": "[NaN3]", "values": [
      {"measurement": "RGEDI/EGFP ratio", "setting": "Rat primary neurons [3]; 2% NaN3 in NBM with ~2 mM Ca^2+, compared to saline", "result": "significantly increased"},
      {"measurement": "RGEDI/EGFP ratio", "setting": "Rat primary neurons [3]; NaN3, neurons washed 3x and incubated in Ca2+ free PBS", "result": "did not show a significant increase"}
    ]},
    {"compound": "N[C@@H](CCC(=O)O)C(=O)O", "note": "[glutamate]", "values": [
      {"measurement": "neuronal death", "setting": "[4]", "result": "killed many of the cells"}
    ]},
    {"compound": "TDP43: neurodegenerative disease protein transfected into neurons", "values": [
      {"measurement": "toxicity over time compared to control (cumulative hazard)", "setting": "[5]", "result": "increased toxicity"}
    ]},
    {"compound": "α-synuclein", "values": [
      {"measurement": "toxicity over time compared to control (cumulative hazard)", "setting": "[5]", "result": "increased toxicity"}
    ]}
  ]
}
